We go through 14 compounds from PubChem BioAssay (NCI).

SMILES strings stand for the structures.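 Tested at 5 concentrations; 48 h exposure; 96-well plates; endpoints linearly interpolated, else capped at highest concentration. TGI denotes the concentration required for complete inhibition of growth.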 A value given as a limit tells only on which side of the number the result lay.

Test systems include DU-145 prostate; EKVX NSCLC; M14 melanoma; NCI-H460 lung; OVCAR-4 ovarian; OVCAR-5 ovarian; RPMI-8226 leukemia; SF-268 CNS; SNB-19 CNS; U251 CNS.
Common to all, as to assay: NCI-60 cell line screen, 48 h

For `COc1ccc(C(=O)NCCN(C)C)c2nc3ccccc3cc12`, the TGI was 3.85 µM with DU-145 prostate; 6.68 µM with EKVX NSCLC; 2.99 µM in the assay on M14 melanoma; 2.55 µM with NCI-H460 lung; 6.49 µM with OVCAR-4 ovarian; 8.06 µM with OVCAR-5 ovarian. In addition, the TGI in the assay on RPMI-8226 leukemia was determined as 6.71 µM; in the assay on SF-268 CNS, 9.82 µM; with SNB-19 CNS, 9.49 µM; with U251 CNS it was 7.62 µM.
Turning to `CCOC(=O)/C(C(C)=O)=C(\OC(C)=O)c1ccncc1C(=O)O`, the TGI in the assay with DU-145 prostate, with EKVX NSCLC, with M14 melanoma, with NCI-H460 lung, with OVCAR-4 ovarian and in the assay on OVCAR-5 ovarian was > 100 µM each time. Also, the TGI with RPMI-8226 leukemia, in the assay with SF-268 CNS, with SNB-19 CNS and with U251 CNS was > 100 µM each time.
For `CC(C)(C)OC(=O)NC(CSSCC(NC(=O)OC(C)(C)C)C(=O)O)C(=O)O` (stereo not given), the TGI with DU-145 prostate, in the assay on EKVX NSCLC, in the assay on M14 melanoma, with NCI-H460 lung, with OVCAR-4 ovarian and in the assay on OVCAR-5 ovarian was > 100 µM each time. Moreover, the TGI in the assay on RPMI-8226 leukemia, in the assay on SF-268 CNS, with SNB-19 CNS and in the assay on U251 CNS was > 100 µM each time.
Turning to `CCOC(=O)CC/C(=N/Nc1ccc(Cl)cc1[N+](=O)[O-])C(=O)OCC`, the TGI in the assay with DU-145 prostate, in the assay on EKVX NSCLC, in the assay with M14 melanoma, in the assay with NCI-H460 lung, with OVCAR-4 ovarian and with OVCAR-5 ovarian was > 100 µM throughout. Further, the TGI in the assay with RPMI-8226 leukemia, in the assay with SF-268 CNS, in the assay with SNB-19 CNS and with U251 CNS was > 100 µM each time.
As for `CC(C)N1CCN(c2ccc(OCC3COC(Cn4cncn4)(c4ccc(Cl)cc4Cl)O3)cc2)CC1` (stereo not given), the TGI with DU-145 prostate was 31.5 µM; in the assay with EKVX NSCLC, 30.6 µM; in the assay with M14 melanoma, > 20 µM; in the assay on NCI-H460 lung, 31.3 µM; in the assay on OVCAR-4 ovarian, 35.6 µM; with OVCAR-5 ovarian it was 29.8 µM. The TGI is 29.7 µM in the assay on RPMI-8226 leukemia, 28.8 µM with SF-268 CNS, > 57.4 µM in the assay on SNB-19 CNS and 26.7 µM in the assay on U251 CNS.
As for `COc1cccc2c1OC(c1cccc3ccccc13)C([N+](=O)[O-])=C2` (stereo not given), the TGI in the assay on DU-145 prostate worked out at 8.9 µM; with EKVX NSCLC, 10.5 µM; in the assay on M14 melanoma it was 2.77 µM; with NCI-H460 lung, 3.77 µM; in the assay with OVCAR-4 ovarian, 13 µM; in the assay with OVCAR-5 ovarian it was 3.62 µM. Moreover, the TGI is > 100 µM in the assay on RPMI-8226 leukemia, 13.3 µM in the assay with SF-268 CNS, 3.01 µM in the assay on SNB-19 CNS and 2.9 µM in the assay on U251 CNS.
As to `COc1ccc(N2C(=O)C3c4[nH]c5cc(C)ccc5c4C4CCC(C(C)(C)C)CC4C3C2=O)cc1` (stereo not given), the TGI in the assay with DU-145 prostate, in the assay with EKVX NSCLC, with M14 melanoma, in the assay on NCI-H460 lung, with OVCAR-4 ovarian and with OVCAR-5 ovarian was > 10 µM throughout. The TGI with RPMI-8226 leukemia, in the assay on SF-268 CNS, in the assay with SNB-19 CNS and with U251 CNS was > 10 µM each time.
On to `CCN(C(=O)N[C@@H](C)C(=O)N[C@@H](Cc1ccccc1)C(=O)OC)c1ccccc1`, for which the TGI in the assay on DU-145 prostate was > 100 µM; in the assay with EKVX NSCLC, > 100 µM; with M14 melanoma, > 100 µM; in the assay with NCI-H460 lung, 38.4 µM; with OVCAR-4 ovarian, > 100 µM; with OVCAR-5 ovarian, > 100 µM. Moreover, the TGI in the assay with RPMI-8226 leukemia, in the assay on SF-268 CNS, in the assay on SNB-19 CNS and with U251 CNS was > 100 µM in each case.
Regarding `O=C1/C(=C/c2ccc(Cl)cc2)CCCc2ccccc21`, the TGI in the assay on DU-145 prostate turned out to be 59 µM; in the assay with EKVX NSCLC, 35.3 µM; in the assay on M14 melanoma, 28.9 µM; in the assay with NCI-H460 lung it was 32.2 µM; in the assay on OVCAR-4 ovarian, 29.5 µM; in the assay with OVCAR-5 ovarian, 31.9 µM. Besides, the TGI with RPMI-8226 leukemia came to 69 µM; in the assay with SF-268 CNS, 30.9 µM; in the assay with SNB-19 CNS, 43.6 µM; in the assay on U251 CNS it was 27.4 µM.
Regarding `CCCCOCCOC1=C(Cl)C(=O)c2c(O)ccc(O)c2C1=O`, the TGI with DU-145 prostate came out at 3.08 µM; in the assay with EKVX NSCLC, 7.59 µM; with M14 melanoma, 0.525 µM; with NCI-H460 lung, 3.48 µM; in the assay with OVCAR-4 ovarian, 1.99 µM; in the assay on OVCAR-5 ovarian it was 2.66 µM. Besides, the TGI in the assay with RPMI-8226 leukemia was determined as 0.806 µM; with SF-268 CNS, 3.18 µM; in the assay on SNB-19 CNS, 1.82 µM; with U251 CNS, 3.55 µM.
Regarding `C=CCn1c(=O)ccn(/C(=C/C(=O)OCC)C(=O)OCC)c1=O`, the TGI is 50.2 µM in the assay with DU-145 prostate; 38.2 µM in the assay with EKVX NSCLC; 28.1 µM with M14 melanoma; 34 µM in the assay on NCI-H460 lung; > 51.4 µM with OVCAR-4 ovarian; 29.9 µM in the assay on OVCAR-5 ovarian. The TGI is 31.4 µM in the assay with RPMI-8226 leukemia, 42.1 µM with SF-268 CNS, > 58.3 µM in the assay with SNB-19 CNS and 27.6 µM with U251 CNS.
Take `CCOc1c(OC)cc(-c2nc3n(n2)C(=O)C(CC)S3)cc1OC` (stereo not given): the TGI in the assay with DU-145 prostate, in the assay with EKVX NSCLC, with M14 melanoma, with NCI-H460 lung, with OVCAR-4 ovarian and with OVCAR-5 ovarian was > 10 µM in each case. The TGI in the assay on RPMI-8226 leukemia, in the assay on SF-268 CNS, in the assay with SNB-19 CNS and in the assay on U251 CNS was > 10 µM each time.
For the compound `CCN(CC)c1ccc(/C=C/c2ccnc3ccccc23)cc1`, the TGI in the assay with DU-145 prostate, in the assay with EKVX NSCLC, with M14 melanoma, in the assay with NCI-H460 lung, in the assay with OVCAR-4 ovarian and in the assay on OVCAR-5 ovarian was > 100 µM throughout. Besides, the TGI in the assay on RPMI-8226 leukemia, in the assay with SF-268 CNS, with SNB-19 CNS and in the assay with U251 CNS was > 100 µM in each case.
As to `O=C(CC(=O)Nc1ccccc1)NNC(Sc1ccccc1)c1cc(N=Nc2ccc(Br)cc2)ccc1O` (stereo not given), the TGI is > 10 µM with DU-145 prostate; > 10 µM in the assay on EKVX NSCLC; 3.47 µM in the assay on M14 melanoma; > 10 µM in the assay on NCI-H460 lung; > 10 µM in the assay with OVCAR-4 ovarian; > 10 µM with OVCAR-5 ovarian. Further, the TGI in the assay on RPMI-8226 leukemia was > 10 µM; in the assay on SF-268 CNS, 8.9 µM; in the assay with SNB-19 CNS, > 10 µM; in the assay on U251 CNS, > 10 µM.
